Results published in article PMC3921447, “Homologous and heterologous desensitization of guanylyl cyclase-B signaling in GH3 somatolactotropes” (Cell and Tissue Research, 2013).

Columns and labels:
[1] = molecular target: T1, GC-B (Rattus norvegicus, UniProt P16067); experiment: Heterologous desensitization of CNP-stimulated (GC-B) cGMP accumulation in GH3 cells; assay type: cell-based
T1 construct: rapid homologous desensitization of endogenous GC-B receptors in GH3 cells; endogenous in cells; host or cells: GH3 rat somatolactotrope cells
T1 sequence (P16067 17-1047): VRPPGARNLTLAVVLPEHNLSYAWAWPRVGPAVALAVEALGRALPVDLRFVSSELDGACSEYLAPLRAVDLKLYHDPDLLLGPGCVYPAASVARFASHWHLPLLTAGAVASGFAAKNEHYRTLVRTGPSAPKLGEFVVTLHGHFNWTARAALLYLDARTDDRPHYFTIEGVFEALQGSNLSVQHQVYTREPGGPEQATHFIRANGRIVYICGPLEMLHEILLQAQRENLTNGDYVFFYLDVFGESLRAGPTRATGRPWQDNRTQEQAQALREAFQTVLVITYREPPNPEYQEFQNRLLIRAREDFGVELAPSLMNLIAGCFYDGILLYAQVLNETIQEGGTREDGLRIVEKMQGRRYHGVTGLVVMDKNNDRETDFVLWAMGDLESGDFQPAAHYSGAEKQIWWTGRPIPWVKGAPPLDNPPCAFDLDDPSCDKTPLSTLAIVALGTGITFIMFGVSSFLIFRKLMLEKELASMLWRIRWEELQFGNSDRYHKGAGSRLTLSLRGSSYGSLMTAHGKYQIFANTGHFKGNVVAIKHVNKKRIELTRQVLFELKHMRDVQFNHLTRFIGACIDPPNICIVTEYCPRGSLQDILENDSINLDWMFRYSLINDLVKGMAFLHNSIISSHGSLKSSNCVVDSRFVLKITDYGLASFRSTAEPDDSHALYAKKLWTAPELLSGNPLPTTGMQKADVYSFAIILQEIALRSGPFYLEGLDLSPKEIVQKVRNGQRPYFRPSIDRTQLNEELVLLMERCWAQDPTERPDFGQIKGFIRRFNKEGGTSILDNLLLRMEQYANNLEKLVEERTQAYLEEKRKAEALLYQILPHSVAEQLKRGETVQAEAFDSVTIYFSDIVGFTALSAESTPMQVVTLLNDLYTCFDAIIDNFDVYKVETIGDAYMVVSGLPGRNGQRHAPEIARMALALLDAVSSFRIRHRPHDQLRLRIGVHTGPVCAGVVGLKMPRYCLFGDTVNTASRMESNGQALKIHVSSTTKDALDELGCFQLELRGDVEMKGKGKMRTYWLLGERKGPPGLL
Text: (§1) Sphingolipids and calcium have been implicated in regulating natriuretic peptide signaling (Abbey-Hosch et al. [2004]; Abbey and Potter [2002]). Therefore, we examined the role of sphingosine-1-phosphate (S1P) on CNP-stimulated cGMP accumulation. […] However, S1P pre-treatment did cause desensitization of CNP-stimulated cGMP accumulation (by 30 ± 2.7 % compared with control, **P < 0.01).
(§2) Fig. 6 Evidence of sphingosine-mediated but not calcium-mediated, heterologous desensitization of GC-B signaling in GH3 somatolactotrope cells. GH3 cells were pre-treated with PSS containing either (a, b) 10 μM sphingosine-1-phosphate (S1P) or (c, d) 1 μM A23187 (calcium ionophore) for 30 min in the absence of IBMX, before a 15-min stimulation with either 100 nM CNP (a, c) or 100 nM ANP (b, d) in the presence of 1 mM IBMX.
(§3) Subsequent experiments examined the potential regulation of GC-B signaling by other peptide hormones. To determine whether the GC-B receptor underwent heterologous desensitization in GH3 cells, the effect of three known activators of PKC on CNP-stimulated cGMP accumulation was analyzed. […] To establish whether the TRH-induced heterologous desensitization of GC-B signaling was PKC-dependent, GH3 cells were pre-treated with either 0 or 1 μM GF109203X for 30 min to inhibit PKC activity. After this, cells were further pre-treated in the absence or presence of GF109203X and 0 or 100 nM TRH for a further 30 min, prior to stimulation with 0 or 100 nM CNP for a final 15-min stimulation in the presence of 1 mM IBMX.
(§4) Fig. 7 Protein kinase C (PKC)-dependent heterologous desensitization mediates the effects of thyrotrophin-releasing hormone (TRH) on CNP-stimulated GC-B signaling in GH3 somatolactotrope cells. a GH3 cells were pre-treated with PSS containing either 0 or 100 nM TRH, phorbol-12-myristate-13-acetate (PMA), or pituitary adenylate cyclase-activating polypeptide (PACAP) for 30 min in the absence of IBMX, before a 15-min stimulation with either 0 or 100 nM CNP in the presence of 1 mM IBMX.

[2] = molecular target: T2, GC-A (Rattus norvegicus, UniProt P18910); experiment: Heterologous desensitization of ANP-stimulated (GC-A) cGMP accumulation in GH3 cells; assay type: cell-based
T2 construct: Evidence of homologous desensitization of endogenous GC-A- and GC-B-mediated signaling in GH3 cells; endogenous in cells; host or cells: GH3 rat somatolactotrope cells
T2 sequence (P18910 29-1057): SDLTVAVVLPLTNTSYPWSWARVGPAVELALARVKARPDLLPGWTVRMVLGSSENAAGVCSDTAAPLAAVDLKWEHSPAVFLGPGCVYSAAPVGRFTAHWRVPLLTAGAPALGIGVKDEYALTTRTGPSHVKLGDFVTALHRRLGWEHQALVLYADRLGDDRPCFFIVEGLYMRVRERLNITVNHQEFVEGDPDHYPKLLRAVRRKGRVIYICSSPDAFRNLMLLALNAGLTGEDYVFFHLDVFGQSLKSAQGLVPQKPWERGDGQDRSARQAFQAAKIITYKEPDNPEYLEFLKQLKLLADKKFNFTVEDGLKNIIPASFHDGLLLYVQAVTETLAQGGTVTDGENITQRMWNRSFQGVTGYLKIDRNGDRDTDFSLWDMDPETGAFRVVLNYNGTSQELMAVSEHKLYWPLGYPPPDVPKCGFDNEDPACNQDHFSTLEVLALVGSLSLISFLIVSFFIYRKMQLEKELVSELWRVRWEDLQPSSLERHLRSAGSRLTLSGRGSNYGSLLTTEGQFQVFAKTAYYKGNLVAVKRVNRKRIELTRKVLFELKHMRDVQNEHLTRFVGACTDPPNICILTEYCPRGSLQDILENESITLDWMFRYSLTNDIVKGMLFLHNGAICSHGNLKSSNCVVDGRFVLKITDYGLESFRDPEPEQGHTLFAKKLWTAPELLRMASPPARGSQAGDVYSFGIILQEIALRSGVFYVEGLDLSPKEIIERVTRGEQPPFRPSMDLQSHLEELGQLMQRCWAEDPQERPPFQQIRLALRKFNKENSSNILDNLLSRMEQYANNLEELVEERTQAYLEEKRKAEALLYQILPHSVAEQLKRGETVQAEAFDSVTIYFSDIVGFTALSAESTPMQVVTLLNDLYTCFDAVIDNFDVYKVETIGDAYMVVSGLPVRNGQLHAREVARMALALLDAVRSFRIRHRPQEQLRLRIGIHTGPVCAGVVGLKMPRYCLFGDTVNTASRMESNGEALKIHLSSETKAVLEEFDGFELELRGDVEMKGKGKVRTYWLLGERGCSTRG
Text: as §1
Fig. 6 Evidence of sphingosine-mediated but not calcium-mediated, heterologous desensitization of GC-B signaling in GH3 somatolactotrope cells. […]

[3] = molecular target: T1, GC-B; experiment: Effect of protein phosphatase inhibitors on rapid homologous desensitization of CNP-stimulated cGMP accumulation in GH3 cells; assay type: cell-based; details: for rate of cGMP accumulation from 5 to 15 min (desensitization): 100 nM CNP, 1 mM IBMX, 30 min pre-treatment with 100 nM OA, 1 nM cypermethrin or 1 mM Na3VO4, control = CNP alone, n = 3; for reversal of the failure to maintain the initial rate of cGMP accumulation: 30 min pre-treatment with phosphatase inhibitor, then 100 nM CNP, discussion statement
Description: Fig. 2 Rapid homologous desensitization of CNP-dependent but not ANP-dependent cGMP accumulation in GH3 cells. Cells were treated with PSS containing either (a) 100 nM CNP or (b) 100 nM ANP for 0–15 min in the presence of 1 mM IBMX.
Similar short time-courses were performed, except that some cells were pre-treated with 100 nM okadaic acid (OA, a PP2A inhibitor), 1 nM cypermethrin (a PP2B inhibitor), or 1 mM sodium orthovanadate (Na3VO4, a protein tyrosine phosphatase inhibitor) for 30 min prior to CNP treatment (Fig. 2c).

[4] = test system: GH3 cells; experiment: Basal cGMP accumulation in GH3 cells after pre-treatment; assay type: cell-based, rat; details: 30 min pre-treatment
Text: as §1, §2, §3, §4

[5] = test system: GC-B; details: NIH3T3, A10, 293 T cells; ref Abbey-Hosch et al. [2004], [2005]; cited from earlier work
Text: Heterologous desensitization of the natriuretic peptide receptors has been widely reported. Sphinogosine signaling is implicated in GC-B desensitization in NIH3T3 fibroblasts, A10 vascular smooth muscle cells and 293 T cells (Abbey-Hosch et al. [2004], [2005]). […] In the current study, we observed a modest effect of S1P pre-treatment of CNP-stimulated cGMP accumulation in GH3 ce ...

[6] = 100 nM TRH, PMA or PACAP, ns, P > 0.05, Fig. 7a

CNc1ccc2oc(C[C@H]3O[C@@]4(CC[C@H]3C)O[C@H]([C@H](C)C(=O)c3ccc[nH]3)[C@H](C)C[C@H]4C)nc2c1C(=O)O [A23187]
effect on CNP-stimulated cGMP accumulation ([1]; 10 μM A23187 30 min pre-treatment, then 100 nM CNP 15 min, Fig. 6c): failed to alter either CNP- or ANP-stimulated cGMP accumulation | effect on ANP-stimulated cGMP accumulation ([2]; 10 μM A23187 30 min pre-treatment, then 100 nM ANP 15 min, Fig. 6d): failed to alter either CNP- or ANP-stimulated cGMP accumulation

[Na+].[Na+].[Na+].[O]=[V]([O-])([O-])[O-] [Na3VO4, sodium orthovanadate]
rate of cGMP accumulation from 5 to 15 min (desensitization) [3]: failed to maintain a significant rate of cGMP accumulation | reversal of the failure to maintain the initial rate of cGMP accumulation [3]: failed to reverse the apparent homologous desensitization

C=C1[C@@H](O)[C@@H]2O[C@]3(CC[C@H](/C=C/[C@@H](C)[C@@H]4CC(C)=C[C@@]5(O[C@H](C[C@@](C)(O)C(=O)O)CC[C@H]5O)O4)O3)CC[C@H]2O[C@@H]1[C@@H](O)C[C@H](C)[C@H]1O[C@@]2(CCCCO2)CC[C@H]1C [OA, okadaic acid]
rate of cGMP accumulation from 5 to 15 min (desensitization) [3]: maintained a significant rate of cGMP accumulation from 5 to 15 min | reversal of the failure to maintain the initial rate of cGMP accumulation [3]: partially reversed the failure to maintain the initial rate of cGMP accumulation

CCCCCCCCCCCCC/C=C/[C@@H](O)[C@@H](N)COP(=O)(O)O [S1P, sphingosine-1-phosphate]
basal cGMP accumulation ([4]; 10 μM S1P, Fig. 6a): failed to significantly alter basal cGMP accumulation | mechanism of GC-B desensitization [5]: does not require PKC activation but is reliant on the elevation of intracellular Ca^2+ levels | desensitization (reduction) of CNP-stimulated cGMP accumulation vs control ([1]; 10 μM S1P 30 min pre-treatment without IBMX, then 100 nM CNP 15 min with 1 mM IBMX, **P < 0.01, n = 3, Fig. 6a): 30 ± 2.7% | desensitization of ANP-stimulated cGMP accumulation ([2]; 10 μM S1P 30 min pre-treatment, then 100 nM ANP 15 min with 1 mM IBMX, ns, P > 0.05, Fig. 6b): did not result in desensitization of ANP-stimulated cGMP accumulation

CC1(C)C(C=C(Cl)Cl)C1C(=O)OC(C#N)c1cccc(Oc2ccccc2)c1 (stereo not drawn) [cypermethrin]
rate of cGMP accumulation from 5 to 15 min (desensitization) [3]: failed to maintain a significant rate of cGMP accumulation | reversal of the failure to maintain the initial rate of cGMP accumulation [3]: failed to reverse the apparent homologous desensitization

C[C@H](CCC(=O)O)C[C@H](C)C[C@H](C)C(=O)/C=C(\O)[C@H](C)C[C@H](C)C/C=C/[C@@H](C)[C@@H](O)[C@@H](C)[C@@H](O)C[C@@H]1CC[C@@](C)([C@H]2CC[C@@](C)([C@@H](C)O)O2)O1 [ionomycin]
mechanism of GC-B desensitization [5]: having a similar effect

pituitary adenylate cyclase-activating polypeptide [PACAP]
basal cGMP accumulation [4, 6]: failed to alter basal cGMP accumulation | effect on CNP-stimulated cGMP accumulation ([1]; 100 nM PACAP 30 min pre-treatment, then 100 nM CNP 15 min with 1 mM IBMX, ns, P > 0.05, Fig. 7a): failed to alter CNP-stimulated cGMP accumulation

thyrotrophin-releasing hormone [TRH]
basal cGMP accumulation [4, 6]: failed to alter basal cGMP accumulation | CNP-stimulated cGMP, % of control response to CNP (reduced to) ([1]; 100 nM TRH 30 min pre-treatment without GF109203X, then 100 nM CNP 15 min with 1 mM IBMX, P < 0.001, n = 3, Fig. 7b): 20.1 ± 5.4% | reduction in CNP-stimulated cGMP accumulation compared with control ([1]; 100 nM, 30 min pre-treatment without IBMX, then 100 nM CNP 15 min with 1 mM IBMX, ***P < 0.001, n = 3, Fig. 7a): 44.6 ± 2.5%
